According to paper PMC7155171, “Probing the Open Global Health Chemical Diversity Library for Multistage-Active Starting Points for Next-Generation Antimalarials” (ACS Infectious Diseases, 2020):
Like-named read-outs stand apart in the source and are kept apart here.

Experiments:
[1] = system: P. falciparum Dd2 (PfLuc) line expressing firefly luciferase, asexual blood stage; experiment: microbe, parasite or virus in culture; format: cell-based, Plasmodium falciparum
P. falciparum Dd2 = experiment: SYBR green I asexual blood stage proliferation assay (96 h); format: cell-based, Plasmodium falciparum; conditions: Plasmodium falciparum; 96 h, Dd2; read-out: 96 h SYBR green ABS IC50
[2] = Plasmodium falciparum, DD2, 8-pt dose response, 96hr, read-out: P. falciparum Luciferase ABS 8-pt Reconfirmation Dose Response (96hr): IC50
[3] = Plasmodium falciparum, DD2, 8-pt dose response, 96hr, read-out: P. falciparum Luciferase ABS 8-pt Reconfirmation Dose Response (96hr): Maximum inhibition (%)
[4] = Plasmodium falciparum, DD2, read-out: P. falciparum Luciferase ABS 11-pt Reconfirmation Dose Response (48hr): IC50, 11-pt dose response, 48hr
[5] = Plasmodium falciparum, DD2, 11-pt dose response, 96hr, read-out: P. falciparum Luciferase ABS 11-pt Reconfirmation Dose Response (96hr): IC50
[6] = Plasmodium falciparum, DD2, 11-pt dose response, 96hr, read-out: P. falciparum Luciferase ABS 11-pt Reconfirmation Dose Response (96hr): Maximum inhibition (%)
[7] = Plasmodium falciparum, DD2, 11-pt dose response, 48hr, read-out: P. falciparum Luciferase ABS 11-pt Reconfirmation Dose Response (48hr): Maximum inhibition (%)
[8] = Plasmodium falciparum, DD2, 8-pt dose response, 96hr, read-out: CDD P. falciparum Luciferase ABS 8-pt Reconfirmation Dose Response (96hr): IC50
[9] = Plasmodium falciparum, DD2, 8-pt dose response, 96hr, read-out: CDD P. falciparum Luciferase ABS 8-pt Reconfirmation Dose Response (96hr): Maximum inhibition (%)

Question: Which IC50 [1, 2] does the source give for `Cc1ccccc1CN(CCN(C)C)Cc1ccc(S(C)(=O)=O)cc1` [DDD01251767] here?
Answer: 1.52 µM

Question: And the Emax [1, 3]?
Answer: 76.8%

Question: For `COc1cccc(OC)c1CN1CC(=O)N(c2ccc(C)cc2)CC1C` (centres unmarked) [DDD01252418], which IC50 [1, 4] is on record?
Answer: 3.67 µM

Question: And the IC50 [1, 2]?
Answer: 1.26 µM

Question: What about the Emax [1, 3] of the same molecule?
Answer: 89.5%

Question: And the IC50 [1, 5]?
Answer: 1.8 µM

Question: What about the Emax [1, 6] of the same molecule?
Answer: 93.6%

Question: What does the source list for `Cc1nc(-c2cc(Cl)c3c(c2)CC(CN)O3)c[nH]1` (centres unmarked) [DDD01252814]?
Answer: IC50 [1, 2]: 2.18 µM; Emax [1, 3]: 88.7%

Question: What does the source list for `CCC[C@H]1CN(c2nc(CO)cs2)C[C@@H]1NC(=O)C1(COC)CC1` [DDD01253377]?
Answer: IC50 [1, 2]: 1.81 µM; Emax [1, 3]: 80.7%

Question: With `Cc1cc(S(=O)(=O)NCC2CNCCOC2)c(C)cc1Cl` (centres unmarked) [DDD01253448] as the molecule, how does the IC50 [1, 4] read?
Answer: > 4.16 µM

Question: What about the IC50 [1, 2] of the same molecule?
Answer: 1.24 µM

Question: What about the Emax [1, 3] of the same molecule?
Answer: 89.3%

Question: And the Emax [1, 7]?
Answer: 24.9%

Question: And the IC50 [1, 5]?
Answer: 1.64 µM

Question: What about the Emax [1, 6] of the same molecule?
Answer: 89%

Question: Which results are given for `Cc1cccnc1CC(C)NC1Cc2ccccc2C1` (centres unmarked) [DDD01255733]?
Answer: IC50 [1, 2]: 1.76 µM; Emax [1, 3]: 81.8%

Question: With `Cc1c(C(=O)N2CCC(N3CCCCC3)CC2)n(C)c2ccc(Cl)cc12` [DDD01255900] as the molecule, how does the IC50 ([1]; Plasmodium falciparum, DD2, read-out: CDD P. falciparum Luciferase ABS 11-pt Reconfirmation Dose Response (48hr): IC50 (μM), 11-pt dose response, 48hr) read?
Answer: 3.56 µM

Question: What about the IC50 [1, 8] of the same molecule?
Answer: 1.11 µM

Question: What about the Emax [1, 9] of the same molecule?
Answer: 93.8%

Question: What about the Emax ([1]; Plasmodium falciparum, DD2, 11-pt dose response, 48hr, read-out: CDD P. falciparum Luciferase ABS 11-pt Reconfirmation Dose Response (48hr): Maximum inhibition (%)) of the same molecule?
Answer: 96.3%

Question: And the IC50 ([1]; Plasmodium falciparum, DD2, 11-pt dose response, 96hr, read-out: CDD P. falciparum Luciferase ABS 11-pt Reconfirmation Dose Response (96hr): IC50)?
Answer: 1.7 µM

Question: And the Emax ([1]; Plasmodium falciparum, DD2, 11-pt dose response, 96hr, read-out: CDD P. falciparum Luciferase ABS 11-pt Reconfirmation Dose Response (96hr): Maximum inhibition (%))?
Answer: 98.9%

Question: With `c1ccc2sc(N3CCCN(c4ncnc5c4CCNC5)CC3)nc2c1` [DDD01257073] as the molecule, how does the IC50 [1, 2] read?
Answer: 1.83 µM

Question: What about the Emax [1, 3] of the same molecule?
Answer: 84%

Question: What does the source list for `O=C(c1ccc(F)c(Cl)c1)N1C[C@H]2CC[C@@H](C1)N(Cc1ccccc1)C2` [DDD01257805]?
Answer: IC50 [1, 4]: 5.31 µM; IC50 [1, 2]: 1.16 µM; Emax [1, 3]: 85.8%; Emax [1, 7]: 91.8%; IC50 [1, 5]: 2.39 µM; Emax [1, 6]: 97.8%

Question: With `Cc1cc(F)ccc1CN1CCC(O)(CN2CCCCC2)C1` (centres unmarked) [DDD01258113] as the molecule, how does the IC50 [1, 2] read?
Answer: 1.22 µM

Question: And the Emax [1, 3]?
Answer: 83.7%

Question: What does the source list for `CCC1CN(C(=O)c2ccc(Cl)cc2O)CCN1C(C)C` (centres unmarked) [DDD01258121]?
Answer: IC50 [1, 2]: 2.57 µM; Emax [1, 3]: 80.5%

Question: How did the IC50 [1, 2] turn out when `CN1CCCC(c2cccc(Cc3ccccc3Cl)n2)C1` (centres unmarked) [DDD01270191] was run?
Answer: 1.72 µM

Question: And the Emax [1, 3]?
Answer: 80.2%

Question: With `CCN1CCCC(CNC(=O)C2(c3cc(C)cc(C)c3)CCC2)C1` (centres unmarked) [DDD01296287] as the molecule, how does the IC50 [1, 2] read?
Answer: 1.39 µM

Question: Which results are given for `CC(O)CN1CCC(CNCc2ccc(OC(F)(F)F)cc2)CC1` (centres unmarked) [DDD01297562]?
Answer: IC50 [1, 2]: 1.25 µM; Emax [1, 3]: 90.4%

Question: How did the IC50 [1, 2] turn out when `CN1CCCC1CNC(=O)CCCOc1cccc(Br)c1` (centres unmarked) [DDD01297989] was run?
Answer: 1.4 µM

Question: And the Emax [1, 3]?
Answer: 83.9%

Question: Which results are given for `CCN(CC)C(CNC(=O)c1c(C)noc1C(C)C)c1ccsc1` (centres unmarked) [DDD01298744]?
Answer: IC50 [1, 8]: 0.96 µM; Emax [1, 9]: 85.7%

Question: For `c1cnnc(N2CCCC2CNc2ncnc3sccc23)c1` (centres unmarked) [DDD01299704], which IC50 [1, 2] is on record?
Answer: 1.61 µM

Question: And the Emax [1, 3]?
Answer: 92.3%

Question: For `CN(Cc1ncc(C(C)(C)C)o1)CC1CCCN1c1cccnn1` (centres unmarked) [DDD01301524], which IC50 [1, 2] is on record?
Answer: 1.81 µM

Question: With `C[C@@H]1CC[C@H]2[C@@H](C)C(=O)O[C@@H]3O[C@@]4(C)CC[C@@H]1[C@]32OO4` [artemisinin, reference compound] as the molecule, how does the inhibition at 10 µM ([1]; Plasmodium falciparum, DD2, 96 h, control at 10 μM, read-out: mean inhibition of positive control in ABS primary screen) read?
Answer: 99.6 ± 1.03%

Question: `CCC[C@@H]1C[C@@H](C(=O)N[C@@H]([C@H]2O[C@H](SC)[C@H](O)[C@@H](O)[C@H]2O)[C@H](C)Cl)N(C)C1` [clindamycin, reference compound] was tested. Which IC50 (P. falciparum Dd2) did it give?
Answer: > 10000 nM

Question: Which IC50 ([1]; 96 h incubation, Dd2 luciferase, read-out: 96 hour Pfluc IC50) does the source give for Doxycycline [reference compound] here?
Answer: 0.55 ± 0.2 µM

Question: What about the IC50 ([1]; read-out: 48 hour Pfluc IC50, 48 h incubation, Dd2 luciferase) of the same molecule?
Answer: 7.18 ± 1.59 µM
